The test has as its system MTT (mouse pheochromocytoma). In words: IC50 of cell viability (ATP content). The settings on record: (24 or 48 h). In a few lines: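 MTT mouse pheochromocytoma cells, cultured overnight at 37°C, 5% CO2 in DMEM with 5% FBS and 1% horse serum, were exposed in white 1536-well plates to library compounds in DMSO at final 0.5 nM to 46 µM (8 concentrations) for 24 or 48 hrs. CellTiter-Glo luminescence was normalised to positive-control (100%) and DMSO (0%) wells. A four-parameter logistic fit gave the IC50.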

Structures can show the parent of a compound that is named as a salt. Some results are limits rather than exact numbers.

The values below come from the supplement of paper PMC3974653.

Consider `OC(CCN1CCCCC1)(c1ccccc1)c1ccccc1` [pridinol], for which the “IC50 of cell viability” value was more than 46 µM.

Consider `CN(C)c1nc(N(C)C)nc(N(C)C)n1` [Altretamine], for which the “IC50 of cell viability” value is more than 46 µM.

With `[O]=[Cd]` [Cadmium oxide], the “IC50 of cell viability” value was more than 46 µM.

`C[N@@+]12CCC(CC1)[C@@H](C2)OC(=O)C(O)(C3=CC=CC=C3)C4=CC=CC=C4` [Clidinium bromide]: the “IC50 of cell viability” value was more than 46 µM.

As to `O=C(O)C(Cl)(Cl)Cl` [Trichloroacetic acid], the “IC50 of cell viability” value was more than 46 µM.

As for `CCC(=O)O[C@@H]1[C@H](C)O[C@@H](O[C@H]2[C@@H](N(C)C)[C@@H](O)[C@H](O[C@H]3[C@H](CC=O)C[C@@H](C)[C@@H](O)/C=C\C=C/C[C@@H](C)OC(=O)C[C@@H](OC(=O)CC)[C@H]3OC)O[C@H]2C)C[C@]1(C)O` [Midecamycin], the “IC50 of cell viability” value is more than 46 µM.

Take `Nc1ccc([S+](=O)([O-])NCc2ccccc2)cc1` [Benzylsulfamide]: the “IC50 of cell viability” value is more than 46 µM.

As for `CCN(CC)CCOC(=O)C(c1ccccc1)c1ccccc1.Cl` [ADIPHENINE HYDROCHLORIDE], the “IC50 of cell viability” value was more than 46 µM.

`CC(=O)Oc1ccc(C(c2ccc(OC(C)=O)cc2)c2ccccn2)cc1` [Bisacodyl]: the “IC50 of cell viability” value was more than 46 µM.

Consider `C[C@]12CC[C@H]3[C@@H](CCC/4=C/C(=O)CC[C@]34C)[C@@H]1CCC2=O` [ANDROSTENEDIONE], for which the “IC50 of cell viability” value was more than 46 µM.

As for `CNC[C@H](O)c1ccc(OC(=O)C(C)(C)C)c(OC(=O)C(C)(C)C)c1` [Dipivefrin hydrochloride], the “IC50 of cell viability” value was more than 46 µM.

For `O=C(CCCCC(=O)Nc1c(I)cc(I)c(C(=O)O)c1I)Nc1c(I)cc(I)c(C(=O)O)c1I` [Iodipamide], the “IC50 of cell viability” value was more than 46 µM.

For the compound `CCON=O` [SWEET SPIRITS OF NITRE], the “IC50 of cell viability” value is more than 46 µM.

Consider `C[N+](C)(CCOc1ccccc1)Cc1cccs1.O=S([O-])Oc1ccc(Cl)cc1` [N,N-Dimethyl-N-2-phenoxyethyl-N-2 Äô-thenylammoniu ...], for which the “IC50 of cell viability” value was more than 46 µM.

For `CC(C)=CCCC(C)=CCCC(C)=CCC/C=C(\C)CC/C=C(\C)CCC=C(C)C` (stereo in doubt) [Squalene], the “IC50 of cell viability” value was more than 46 µM.

Take `C[C@@]12CC(O)[C@]3(F)C(CCC/4=C/C(=O)/C=C\[C@@]34C)C1CC(O)[C@@]2(O)C(=O)CO` (some centres not stated) [TRIAMCINOLONE]: the “IC50 of cell viability” value was more than 46 µM.

Regarding `CC[C@@]12CCCN3CCc4c(n(c5ccccc45)C(=O)C1)[C@H]32` [Eburnamonine (-)], the “IC50 of cell viability” value was more than 46 µM.

On to `CC(C)(O/N=C(\C(=O)N[C@@H]1C(=O)N2C(C(=O)[O-])=C(C[n+]3ccccc3)CS[C@@H]12)c1csc(N)n1)C(=O)O.O.O.O.O.O` [Ceftazidime pentahydrate], for which the “IC50 of cell viability” value is more than 46 µM.

Turning to `CC(C)OC(=O)C(\C(=O)OC(C)C)=C1\SC=CS1` [malotilate], the “IC50 of cell viability” value was more than 46 µM.

`CC(C)NCC(O)c1ccc(N)c(C#N)c1` (configuration not stated) [CIMATEROL]: the “IC50 of cell viability” value was more than 46 µM.

Take `CCC(=O)OCC(=O)C1(OC(=O)CC)C(C)CC2C3CCC/4=C/C(=O)/C=C\C4(C)C3(Cl)C(O)CC12C` (configuration not stated) [Beclazone]: the “IC50 of cell viability” value is more than 46 µM.

Consider `Nc1nc(O)c2c(CCc3ccc(C(=O)N[C@H](CCC(=O)[O-])C(=O)[O-])cc3)c[nH]c2n1` [PEMETREXED], for which the “IC50 of cell viability” value is more than 46 µM.

Consider `O=C(O)COc1ccc(CCN[S+](=O)([O-])c2ccccc2)s1` [LINOTROBANUM], for which the “IC50 of cell viability” value is more than 46 µM.

With `C#C[C@]1(OC(C)=O)CC[C@H]2[C@@H]3CCC4=C[C@@H](OC(C)=O)CC[C@@H]4[C@H]3CC[C@@]21C` [ETHYNODIOL DIACETATE], the “IC50 of cell viability” value was more than 46 µM.

As for `C[C@H]/1C[C@H]2[C@H]3CC[C@@H](C(C)=O)[C@]3(C)C[C@@H](O)[C@@H]2[C@]4(C)CCC(=O)\C=C14` [Medrysone], the “IC50 of cell viability” value is more than 46 µM.

On to `CC(=O)OC1C([N+]2(C)CCCCC2)C[C@H]2C3CC[C@H]4C[C@H](OC(C)=O)C([N+]5(C)CCCCC5)CC4(C)[C@@H]3CCC12C` (some centres not stated) [PANCURONIUM], for which the “IC50 of cell viability” value is more than 46 µM.

`COc1cc2nc(O)nc(O)c2cc1OC` [6,7-DIMETHOXYQUINAZOLINE-2,4(1H,3H)-DIONE]: the “IC50 of cell viability” value is more than 46 µM.

As for `CCOC(=O)c1ccc(NC(=O)CN2CCCCC2)cc1` [Sulcaine], the “IC50 of cell viability” value is more than 46 µM.

Turning to `CC1(C)[C@@H](O)CC[C@@]2(C)[C@H]1CC[C@]3(C)[C@@H]2C(=O)\C=C/4[C@@H]5C[C@](C)(CC[C@]5(C)CC[C@@]34C)C(O)=O` [ENOXOLONE], the “IC50 of cell viability” value was more than 46 µM.

As for `CCc1oc2ccccc2c1C(=O)c1cc(Br)c(O)c(Br)c1` [benzbromarone], the “IC50 of cell viability” value is more than 46 µM.

On to `CC1[C@H]2Cc3ccc(O)cc3[C@]1(C)CCN2C` (single isomer, unassigned; (-)) [(-)-Metazocine], for which the “IC50 of cell viability” value was more than 46 µM.

As for `CC(=O)CC/C=C(\C)CC/C=C(/C)CC/C=C(\C)CCC=C(C)C` [TEPRENONE], the “IC50 of cell viability” value is more than 46 µM.

Turning to `CCCCc1cc2ccccc2c(OCCN(C)C)n1` [Dimethisoquin hydrochloride], the “IC50 of cell viability” value was more than 46 µM.

Regarding `CCCN1CCC[C@@H]2Cc3n[nH]cc3C[C@H]21` [(-)-QUINPIROLE], the “IC50 of cell viability” value was more than 46 µM.

For the compound `O=C1[O][Mg]2([O]C(=O)c3ccccc3[O]2)[O]c2ccccc21` [MAGNESIUM SALICYLATE], the “IC50 of cell viability” value was more than 46 µM.

Turning to `CC[C@H](OC(C)=O)C(C[C@H](C)NC)(c1ccccc1)c1ccccc1`, the “IC50 of cell viability” value is more than 46 µM.

In the case of `C[N+]1(C)CCC(=C(c2ccccc2)c2ccccc2)CC1` [Diphemanil methylsulfate], the “IC50 of cell viability” value is more than 46 µM.

With `CNC(C)Cc1ccc2c(c1)OCO2` (configuration not stated) [(?)-3,4-Methylenedioxymethamphetamine], the “IC50 of cell viability” value is more than 46 µM.

Take `O=C(c1ccccc1)c1ccc2n1CCC2C(=O)O` (configuration not stated) [Ketorolac tris salt]: the “IC50 of cell viability” value was more than 46 µM.

Take `COCC1=C(C(=O)OC(C)OC(=O)OC(C)C)N2C(=O)[C@@H](NC(=O)/C(=N/OC)c3csc(N)n3)[C@H]2SC1` (some centres not stated) [CEFPODOXIME PROXETIL]: the “IC50 of cell viability” value is more than 46 µM.

As for `CNC1(c2ccccc2Cl)CCCCC1=O` (stereo in doubt) [(R)-(+)-Ketamine], the “IC50 of cell viability” value was more than 46 µM.

Consider `CC(C)[C@@H](N)C(=O)O` [VALINE], for which the “IC50 of cell viability” value was more than 46 µM.

For `CCCCCCCC(=O)OCC(COC(=O)CCCCCCC)OC(=O)CCCCCCC` [Tricaprylin], the “IC50 of cell viability” value was more than 46 µM.

For the compound `[O-]/[N+](=N/c1ccccc1)c1ccccc1` [Azoxybenzene], the “IC50 of cell viability” value is more than 46 µM.

As for `CC(=O)N[C@@H]1CCSC1=O` (racemic) [N-Acetyl-DL-homocysteine Thiolactone], the “IC50 of cell viability” value is more than 46 µM.

As to `CCOC(=O)COc1ccc2c(C)c(CC[NH+](CC)CC)c(=O)oc2c1` [Chromonar hydrochloride], the “IC50 of cell viability” value is more than 46 µM.

On to `CC(=O)Nc1ccc(OCC(O)CNC(C)C)cc1` (configuration not stated) [PRACTOLOL], for which the “IC50 of cell viability” value is more than 46 µM.

With `C=CCSCC1Nc2cc(Cl)c([S+](N)(=O)[O-])cc2[S+](=O)([O-])N1` (configuration not stated) [ALTHIAZIDE], the “IC50 of cell viability” value was more than 46 µM.

Consider `CCCCO` [n-Butyl alcohol], for which the “IC50 of cell viability” value was more than 46 µM.

Turning to `COc1ccc(Cc2nccc3cc(OC)c(OC)cc23)cc1OC` [Papaverine hydrochloride], the “IC50 of cell viability” value is more than 46 µM.

On to `O=C1/C(=C\c2cccs2)CCC/C1=C/c1cccs1` [Tenilidona], for which the “IC50 of cell viability” value is more than 46 µM.

In the case of `C[C@H](O)CN(C)C`, the “IC50 of cell viability” value is more than 46 µM.

Take `Cc1nnc(SCC2=C(C(=O)O)N3C(=O)[C@@H](NC(=O)Cn4cnnn4)[C@H]3SC2)s1` [Cefazolin]: the “IC50 of cell viability” value is more than 46 µM.

For the compound `O=C1NC2CCCCN2C12CCN(CCCN1c3ccccc3CCc3ccc(Cl)cc31)CC2` (configuration not stated) [Mosapramine], the “IC50 of cell viability” value is more than 46 µM.

As for `O=[S+]([O-])(c1cccc2cnccc12)N1CCCNCC1` [Fasudil hydrochloride], the “IC50 of cell viability” value was more than 46 µM.

As to `N=C(N)NCCCCNC(=N)N.O=[S+]([O-])(O)O` [ARCAINE SULFATE], the “IC50 of cell viability” value was more than 46 µM.

Take `CCN(CC)CCOC(=O)C(c1ccccc1)C1CCCCC1.Cl` (configuration not stated) [DROFENINE HYDROCHLORIDE]: the “IC50 of cell viability” value was more than 46 µM.

Regarding `CC1=C[C@@H](O)CC(C)(C)[C@@H]1/C=C/C(C)=C/C=C/C(C)=C/C=C/C=C(C)/C=C/C=C(C)/C=C/C1=C(C)C[C@H](O)CC1(C)C` [LUTEIN], the “IC50 of cell viability” value was more than 46 µM.

As for `NC12CC3CC(CC(C3)C1)C2` [AMANTIDINE], the “IC50 of cell viability” value was more than 46 µM.

On to `C[C@@H](N)[C@@H](O)c1ccc(O)c(O)c1` [(-)3,4-DIHYDROXYNOREPHEDRINE], for which the “IC50 of cell viability” value was more than 46 µM.

Turning to `CN(C)C(=O)CNC(=O)Cc1ccccc1` [Acetamide, N,N-dimethyl-2-(2-phenylacetamido)-], the “IC50 of cell viability” value was more than 46 µM.

Take `CO[C@H]1O[C@@H]2O[C@@]3(C)CC[C@H]4[C@H](C)CC[C@@H]([C@H]1C)[C@@]24OO3` [Artemetero]: the “IC50 of cell viability” value is more than 46 µM.

Take `NCC1(CC(=O)O)CCCCC1` [Gabapentin]: the “IC50 of cell viability” value was more than 46 µM.

`CC(=O)Oc1ccc(C2(c3ccc(OC(C)=O)cc3)Oc3ccccc3NC2=O)cc1` [Bisoxatin Acetate]: the “IC50 of cell viability” value was more than 46 µM.

For the compound `O=C1OC2C(O)C(O)OC2C1O` (configuration not stated) [Mannuronic acid lactone], the “IC50 of cell viability” value is more than 46 µM.

As for `ClC1=C(Cl)C2(Cl)C(CBr)CC1(Cl)C2(Cl)Cl` (configuration not stated), the “IC50 of cell viability” value is more than 46 µM.

For the compound `CCOc1ccc2nc3cc(N)ccc3c(N)c2c1` [ACRINOL], the “IC50 of cell viability” value is more than 46 µM.
